PubChem BioAssay AID230 (DTP/NCI, 2004)
Several values for one entry are separate records, joined by “and”; a condition that tells them apart may be missing. Equal values may be shown once. Toxic doses and inconclusive results are not listed.

Tested on: C3H/He mice, Gardner lymphosarcoma 6C3HED ip, survival T/C
Assay: NCI In Vivo Anticancer Drug Screen. Data for tumor model Lymphosarcoma Gardner 6C3HED (intraperitoneal) in C3H/He mice
Conditions: higher = longer survival
Protocol: The antitumor activity of compounds was measured in mice bearing transplantable tumors. Survival or tumor size were measured and the results are expressed as the measurement made in the treated group (T) divided by the measurement made in the vehicle treated control group (C). The tumor model used in this assay is Lymphosarcoma Gardner 6C3HED (intraperitoneal) in C3H/He mice

[1] = endpoint: survival time, mean or median, dose: 125.0 micrograms/kg/injection, schedule: Q01DX010 (ip), vehicle: saline
[2] = endpoint: survival time, mean or median, dose: 32.0 mg/kg/injection, schedule: Q01DX010 (ip), vehicle: saline
[3] = endpoint: survival time, mean or median, dose: 25.0 mg/kg/injection, schedule: Q01DX010 (ip), vehicle: saline
[4] = endpoint: survival time, mean or median, dose: 50.0 mg/kg/injection, schedule: Q01DX010 (ip), vehicle: saline
[5] = endpoint: survival time, mean or median, dose: 100.0 mg/kg/injection, schedule: Q01DX010 (ip), vehicle: saline
[6] = endpoint: survival time, mean or median, dose: 200.0 mg/kg/injection, schedule: Q01DX010 (ip), vehicle: saline
[7] = endpoint: survival time, mean or median, dose: 10.0 mg/kg/injection, schedule: Q01DX010 (ip), vehicle: saline
[8] = endpoint: survival time, mean or median, dose: 20.0 mg/kg/injection, schedule: Q01DX010 (ip), vehicle: saline
[9] = endpoint: survival time, mean or median, dose: 40.0 mg/kg/injection, schedule: Q01DX010 (ip), vehicle: saline
[10] = endpoint: survival time, mean or median, dose: 80.0 mg/kg/injection, schedule: Q01DX010 (ip), vehicle: saline
[11] = endpoint: survival time, mean or median, dose: 1.25 mg/kg/injection, schedule: Q01DX010 (ip), vehicle: saline
[12] = endpoint: survival time, mean or median, dose: 2.5 mg/kg/injection, schedule: Q01DX010 (ip), vehicle: saline
[13] = endpoint: survival time, mean or median, dose: 5.0 mg/kg/injection, schedule: Q01DX010 (ip), vehicle: saline
[14] = endpoint: survival time, mean or median, dose: 62.5 mg/kg/injection, schedule: Q01DX010 (ip), vehicle: saline
[15] = endpoint: survival time, mean or median, dose: 125.0 mg/kg/injection, schedule: Q01DX010 (ip), vehicle: saline
[16] = endpoint: survival time, mean or median, dose: 500.0 mg/kg/injection, schedule: Q01DX010 (ip), vehicle: saline

## N#Cc1cn(C2OC(CO)C(O)C2O)c2ncnc(N)c12 (centres undefined)
endpoint: survival time, mean or median, dose: 31.0 micrograms/kg/injection, schedule: Q01DX010 (ip), vehicle: saline
  T/C: 96 % of control
[1]
  T/C: 96 % of control

## CCCCNc1ncnc2c1cnn2C
endpoint: survival time, mean or median, dose: 4.0 mg/kg/injection, schedule: Q01DX010 (ip), vehicle: saline
  T/C: 90 % of control and 100 % of control
endpoint: survival time, mean or median, dose: 8.0 mg/kg/injection, schedule: Q01DX010 (ip), vehicle: saline
  T/C: 95 % of control and 100 % of control
endpoint: survival time, mean or median, dose: 16.0 mg/kg/injection, schedule: Q01DX010 (ip), vehicle: saline
  T/C: 90 % of control and 100 % of control
[2]
  T/C: 90 % of control and 100 % of control

## Nc1nc([Se])c2ncn(C3OC(CO)C(O)C3O)c2n1 (centres undefined)
endpoint: median survival time, dose: 1.0 mg/kg/injection, schedule: Q01DX009 (ip), vehicle: saline
  T/C: 98 % of control
endpoint: median survival time, dose: 2.0 mg/kg/injection, schedule: Q01DX009 (ip), vehicle: saline
  T/C: 103 % of control
endpoint: median survival time, dose: 4.0 mg/kg/injection, schedule: Q01DX009 (ip), vehicle: saline
  T/C: 114 % of control
endpoint: median survival time, dose: 8.0 mg/kg/injection, schedule: Q01DX009 (ip), vehicle: saline
  T/C: 107 % of control
endpoint: median survival time, dose: 16.0 mg/kg/injection, schedule: Q01DX009 (ip), vehicle: saline
  T/C: 99 % of control

## O[C@H](CN1CC1)[C@@H](O)CN1CC1
[1]
  T/C: 103 % of control
endpoint: survival time, mean or median, dose: 250.0 micrograms/kg/injection, schedule: Q01DX010 (ip), vehicle: saline
  T/C: 114 % of control and 203 % of control
endpoint: survival time, mean or median, dose: 500.0 micrograms/kg/injection, schedule: Q01DX010 (ip), vehicle: saline
  T/C: 169 % of control

## CS(=O)(=O)OCC(O)C(O)C(O)C(O)COS(C)(=O)=O (centres undefined)
[3]
  T/C: 94 % of control
[4]
  T/C: 100 % of control
[5]
  T/C: 94 % of control and 100 % of control
[6]
  T/C: 100 % of control and 105 % of control
endpoint: survival time, mean or median, dose: 400.0 mg/kg/injection, schedule: Q01DX010 (ip), vehicle: saline
  T/C: 110 % of control

## Cn1cnc([N+](=O)[O-])c1Sc1ncnc2nc[nH]c12
[7]
  T/C: 86 % of control
[8]
  T/C: 93 % of control
[9]
  T/C: 86 % of control
[10]
  T/C: 86 % of control

## CCN(CC)CCCC(C)Nc1c2ccc(Cl)cc2nc2ccc(OC)cc12 (centres undefined)
endpoint: survival time, mean or median, dose: 3.13 mg/kg/injection, schedule: Q01DX010 (ip), vehicle: saline
  T/C: 90 % of control
endpoint: survival time, mean or median, dose: 6.25 mg/kg/injection, schedule: Q01DX010 (ip), vehicle: saline
  T/C: 90 % of control
[3]
  T/C: 100 % of control
[4]
  T/C: 112 % of control

## CO[C@@H]1[C@@H](OC2OC(C)C(OC3CC(C)(O)C(OC(=O)CC(C)C)C(C)O3)C(N(C)C)C2O)[C@@H](CC=O)C[C@@H](C)C(=O)/C=C/C2O[C@H]2C[C@@H](C)OC(=O)C[C@H]1OC(C)=O (some centres undefined)
endpoint: survival time, mean or median, dose: 18.8 mg/kg/injection, schedule: Q01DX010 (ip), vehicle: saline
  T/C: 94 % of control
endpoint: survival time, mean or median, dose: 37.5 mg/kg/injection, schedule: Q01DX010 (ip), vehicle: saline
  T/C: 102 % of control

## CC1CN1P(=S)(N1CC1C)N1CC1C (centres undefined)
[11]
  T/C: 103 % of control
[12]
  T/C: 100 % of control and 103 % of control
[13]
  T/C: 92 % of control and 107 % of control
[7]
  T/C: 100 % of control and 103 % of control
[8]
  T/C: 107 % of control

## S=P(N1CC1)(N1CC1)N1CC1
endpoint: survival time, mean or median, dose: 0.75 mg/kg/injection, schedule: Q01DX010 (ip), vehicle: saline
  T/C: 100 % of control
endpoint: survival time, mean or median, dose: 1.5 mg/kg/injection, schedule: Q01DX010 (ip), vehicle: saline
  T/C: 104 % of control and 105 % of control
endpoint: survival time, mean or median, dose: 3.0 mg/kg/injection, schedule: Q01DX010 (ip), vehicle: saline
  T/C: 100 % of control and 110 % of control
endpoint: survival time, mean or median, dose: 6.0 mg/kg/injection, schedule: Q01DX010 (ip), vehicle: saline
  T/C: 104 % of control and 115 % of control

## COc1cccc2c1C(=O)c1c(O)c3c(c(O)c1C2=O)C[C@@](O)(C(C)=O)C[C@@H]3OC1CC(N)C(O)C(C)O1 (some centres undefined)
endpoint: survival time, mean or median, dose: 0.13 mg/kg/injection, schedule: Q01DX010 (ip), vehicle: saline
  T/C: 92 % of control
endpoint: survival time, mean or median, dose: 0.25 mg/kg/injection, schedule: Q01DX010 (ip), vehicle: saline
  T/C: 111 % of control
endpoint: survival time, mean or median, dose: 0.5 mg/kg/injection, schedule: Q01DX010 (ip), vehicle: saline
  T/C: 119 % of control
endpoint: survival time, mean or median, dose: 1.0 mg/kg/injection, schedule: Q01DX010 (ip), vehicle: saline
  T/C: 300 % of control
endpoint: survival time, mean or median, dose: 2.0 mg/kg/injection, schedule: Q01DX010 (ip), vehicle: saline
  T/C: 173 % of control

## COS(C)(=O)=O
endpoint: survival time, mean or median, dose: 12.5 mg/kg/injection, schedule: Q01DX010 (ip), vehicle: saline
  T/C: 119 % of control
[3]
  T/C: 300 % of control
[4]
  T/C: 300 % of control

## Cn1c(N)nc2nc[nH]c2c1=S
[7]
  T/C: 96 % of control and 103 % of control
[8]
  T/C: 96 % of control and 107 % of control
[9]
  T/C: 100 % of control and 107 % of control
[10]
  T/C: 96 % of control

## N=C(N)SCc1c2ccccc2c(CSC(=N)N)c2ccccc12
[12]
  T/C: 300 % of control
[13]
  T/C: 300 % of control
[7]
  T/C: 300 % of control
[8]
  T/C: 300 % of control
[9]
  T/C: 192 % of control

## Nc1ncccc1C(=O)O
[14]
  T/C: 100 % of control
[15]
  T/C: 100 % of control
endpoint: survival time, mean or median, dose: 250.0 mg/kg/injection, schedule: Q01DX010 (ip), vehicle: saline
  T/C: 107 % of control
[16]
  T/C: 96 % of control

## NC(=O)n1cccn1
[3]
  T/C: 89 % of control
[4]
  T/C: 96 % of control
[5]
  T/C: 96 % of control
[6]
  T/C: 100 % of control

## COc1ccc2c(c1OC)C(=O)O[C@@H]2[C@H]1c2c(cc3c(c2OC)OCO3)CCN1C
endpoint: survival time, mean or median, dose: 31.3 mg/kg/injection, schedule: Q01DX010 (ip), vehicle: saline
  T/C: 90 % of control and 107 % of control
[14]
  T/C: 100 % of control
[15]
  T/C: 92 % of control

## CC[n+]1c(-c2ccccc2)c2cc(N)ccc2c2ccc(N)cc21
[11]
  T/C: 117 % of control
[12]
  T/C: 121 % of control
[13]
  T/C: 117 % of control
[7]
  T/C: 121 % of control

## NCC(=O)O
endpoint: median survival time, dose: 187.5 mg/kg/injection, schedule: Q04HX020 (ip), vehicle: saline
  T/C: 88 % of control
endpoint: median survival time, dose: 187.5 mg/kg/injection, schedule: Q06HX020 (ip), vehicle: saline
  T/C: 89 % of control
endpoint: median survival time, dose: 375.0 mg/kg/injection, schedule: Q04HX020 (ip), vehicle: saline
  T/C: 88 % of control
endpoint: median survival time, dose: 375.0 mg/kg/injection, schedule: Q06HX020 (ip), vehicle: saline
  T/C: 89 % of control
endpoint: median survival time, dose: 750.0 mg/kg/injection, schedule: Q04HX020 (ip), vehicle: saline
  T/C: 92 % of control
endpoint: median survival time, dose: 750.0 mg/kg/injection, schedule: Q06HX020 (ip), vehicle: saline
  T/C: 93 % of control
endpoint: median survival time, dose: 1500.0 mg/kg/injection, schedule: Q06HX020 (ip), vehicle: saline
  T/C: 69 % of control

## CC(C)CC(NC(=O)C(O)C(N)Cc1ccccc1)C(=O)O (centres undefined)
endpoint: median survival time, dose: 2.5 mg/kg/injection, schedule: Q01DX005 (oral), vehicle: saline
  T/C: 94 % of control
endpoint: median survival time, dose: 5.0 mg/kg/injection, schedule: Q01DX005 (oral), vehicle: saline
  T/C: 95 % of control
endpoint: median survival time, dose: 10.0 mg/kg/injection, schedule: Q01DX005 (oral), vehicle: saline
  T/C: 95 % of control

## COc1ccc(/C=N/NC(N)=S)cc1
[2]
  T/C: 96 % of control
endpoint: survival time, mean or median, dose: 64.0 mg/kg/injection, schedule: Q01DX010 (ip), vehicle: saline
  T/C: 92 % of control
endpoint: survival time, mean or median, dose: 128.0 mg/kg/injection, schedule: Q01DX010 (ip), vehicle: saline
  T/C: 100 % of control
endpoint: survival time, mean or median, dose: 256.0 mg/kg/injection, schedule: Q01DX010 (ip), vehicle: saline
  T/C: 96 % of control

## Nc1nc(N)c2nc(CNc3ccc(C(=O)NC(CCC(=O)O)C(=O)O)cc3)cnc2n1 (centres undefined)
endpoint: survival time, mean or median, dose: 0.03 mg/kg/injection, schedule: Q01DX010 (ip), vehicle: other
  T/C: 95 % of control and 100 % of control
endpoint: survival time, mean or median, dose: 0.05 mg/kg/injection, schedule: Q01DX010 (ip), vehicle: other
  T/C: 100 % of control and 110 % of control
endpoint: survival time, mean or median, dose: 0.1 mg/kg/injection, schedule: Q01DX010 (ip), vehicle: other
  T/C: 100 % of control and 110 % of control

## CC(N)(CC(=O)O)C(=O)O (centres undefined)
endpoint: median survival time, dose: 3.12 mg/kg/injection, schedule: Q01DX009 (ip), vehicle: saline
  T/C: 90 % of control and 98 % of control
endpoint: median survival time, dose: 6.25 mg/kg/injection, schedule: Q01DX009 (ip), vehicle: saline
  T/C: 96 % of control
endpoint: median survival time, dose: 12.5 mg/kg/injection, schedule: Q01DX009 (ip), vehicle: saline
  T/C: 92 % of control and 99 % of control
endpoint: median survival time, dose: 25.0 mg/kg/injection, schedule: Q01DX009 (ip), vehicle: saline
  T/C: 86 % of control
endpoint: median survival time, dose: 50.0 mg/kg/injection, schedule: Q01DX009 (ip), vehicle: saline
  T/C: 101 % of control

## CCN(CC)C(=S)S
[15]
  T/C: 93 % of control
[16]
  T/C: 96 % of control
